In one assay the target is AChE (Electrophorus electricus, UniProt O42275). The experiment in a line: biochemical. Here is the method:
The modified method of Ellman et al. was adopted to measure AChE activity. Briefly, 25 µl (0.3 U/ml) AChE from Electric eel fish (Electrophorus electricus) was incubated with and without different concentrations of drugs selected from Molecular Docking studies. The reaction was carried out for 15 min at 25°C. […] Total volume of the reaction was made up to 1 ml by Tris buffer, pH 8.0. ATCI hydrolysis was measured by colored product formation, 5-thio-2-nitrobenzoate anion by reaction between DTNB and thiocholine, a hydrolysis product of ATCI. The formation of the colored product was measured at 405 nm wavelength after 30 min. The background was determined from negative controls (omission of AChE enzyme).
(§1) Lineweaver-Burk double reciprocal plot was plotted in order to determine the Km. […] The Ki was calculated directly from IC50 value using Cheng-Prussoffs classical equation [45]. [drawing 1]
(§2) The reciprocals of reaction rate (1/v) for each inhibitor concentration were plotted against the reciprocals of the substrate concentrations (1/S).

Assay [1] deals with T1, Aβ13–22 (Homo sapiens, UniProt P05067). Conditions: incubated 7 days, protriptyline 0.010 mM; ∼400 nm average without. Here is the method:
(§3) Aβ13–22 peptide ([…]), the aggregation prone region of Aβ, was synthesized from Thermo Fisher Scientific. Synthetic Aβ13–22 peptide was dissolved in 10% ammonium hydroxide and sonicated for 5 min. It was then diluted in 10 mM PBS, pH 7.0 to a final concentration of 200 µM.

Another assay has as its target ADAM17 (Homo sapiens, UniProt P78536). The experiment in a line: biochemical. As to conditions: read-out: inhibition of ADAM 17. Here is the method:
Fluorescence was measured at 328 nm and 420 nm for excitation and emission respectively.

Assay [2] concerns the target T1, Aβ13–22. Here is the method: as §3
Inhibition of aggregation/ glycation mediated aggregation of Aβ was detected by static light scattering method using a Perkin-Elmer Luminescence spectrometer LS50B. Both excitation and emission wavelengths were set at 400 nm. Excitation and emission slit width was set to 10 nm and 2.5 nm, respectively. Scattering was recorded for 60 sec.

The target of the next assay is glycation of Aβ13–22 (Homo sapiens, UniProt P05067). Conditions: excitation 370 nm, emission 440 nm; 0.1 M glucose, 7 days. Here is the method:
The details of insulin and BSA glycation are described in Method S1. […] These samples were further used to study glycation mediated Aβ aggregation by different assays.
Glycation associated fluorescence of Aβ was measured in amyloid, glycated amyloid treated with or without protryptiline at 370 nm excitation and emission was scanned from 400–550 nm.

The target in assay [3] is glycation of BSA (Bovine Serum Albumin) (Bos taurus, UniProt P02769). Conditions: AGE fluorescence and Thioflavin T fluorescence. The protocol:
(§4) 1.5mg/ml insulin and 0.1 M glucose were incubated with various concentrations of protryptiline in 10 mM PBS, pH 7.0 for 7 days. These samples were further used to study glycation inhibition by MALDI. BSA glycation reaction was performed in a similar manner with 1mg/ml BSA concentration and inhibition was studied by AGE fluorescence and Thioflavin T assay ^1.

A further assay addresses glycation of insulin (Homo sapiens, UniProt P01308). Conditions: MALDI; 500 µM and 1000 µM protriptyline. Here is the method:
as §4

In assay [4] the target is T1, Aβ13–22. The experiment in a line: biochemical. The protocol: as §3
Thioflavin T assay was performed on 7th day of incubation. 50 µl (25 µM) of Aβ13–22 was mixed with 150 µl of Thioflavin T (ThT) stock solution (50 µM ThT in PBS pH 7.0) and placed in 96-well plate (black with flat bottom, Cornings). Fluorescence emission was measured at 460–550 nm upon excitation at 440 nm. To account for background fluorescence, the fluorescence intensity measured from each control solution without Aβ was subtracted from each solution containing Aβ13–22.

The target in assay [5] is AChE activity in neuro2a cells (Mus musculus, UniProt P21836). Conditions: 25 µM and 60 µM protriptyline. The protocol: Murine neuro2a neuroblastoma cells were obtained from National Center for Cell Science, Pune, India. The cells were maintained in Dulbecco's modified Eagle's medium (DMEM) and 10% Fetal Bovine Serum (FBS). Cells were maintained at 37°C in humidified air containing 5% CO2 and were grown in monolayer cultures.

The next assay deals with Bovine trypsin (Bos taurus, UniProt P00760). Conditions: 0.1 and 0.5 mM. The protocol:
Activity of Bovine trypsin was estimated using enzyme-specific chromogenic substrate BApNA [46]. […] Further, 1 ml BApNA was added to the reaction mixture and incubated for 10 min at 37°C. The reaction was terminated by addition of 200 µl of 30% acetic acid and absorbance was measured at 410 nm.

The next assay has as its target BACE-1 (Homo sapiens, UniProt P56817). Briefly: biochemical. The protocol: BACE-1 activity was studied in accordance with the manufacturer's instructions (Sigma). […] Negative control included all the reactants except BACE-1 enzyme. After 2 h, fluorescence emission was measured at 405 nm upon excitation at 320 nm.
as §1, §2

A word on the IC50: it is the point on the concentration scale where inhibition reaches its midpoint. Low values mean greater potency, high ones weaker potency. In general, inhibition refers to how much of the control response was suppressed. For orientation: Ki means a dissociation constant, usually derived from enzyme kinetics or from competition with a known ligand. Higher therefore signals weaker binding.

Sequence of BACE-1 (P56817 46-501): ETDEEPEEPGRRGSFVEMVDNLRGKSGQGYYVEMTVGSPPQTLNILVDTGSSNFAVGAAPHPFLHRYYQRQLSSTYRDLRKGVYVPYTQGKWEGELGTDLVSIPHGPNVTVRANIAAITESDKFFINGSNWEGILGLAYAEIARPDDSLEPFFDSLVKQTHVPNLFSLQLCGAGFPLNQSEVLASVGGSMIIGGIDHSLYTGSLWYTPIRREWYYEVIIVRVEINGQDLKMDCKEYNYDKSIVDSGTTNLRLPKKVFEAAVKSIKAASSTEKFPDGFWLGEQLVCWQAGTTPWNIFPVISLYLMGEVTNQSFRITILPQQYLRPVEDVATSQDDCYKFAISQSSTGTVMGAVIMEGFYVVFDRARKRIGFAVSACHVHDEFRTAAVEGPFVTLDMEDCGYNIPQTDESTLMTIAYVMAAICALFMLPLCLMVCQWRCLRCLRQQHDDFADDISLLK
Sequence of ADAM17 (P78536 215-824, species assumed): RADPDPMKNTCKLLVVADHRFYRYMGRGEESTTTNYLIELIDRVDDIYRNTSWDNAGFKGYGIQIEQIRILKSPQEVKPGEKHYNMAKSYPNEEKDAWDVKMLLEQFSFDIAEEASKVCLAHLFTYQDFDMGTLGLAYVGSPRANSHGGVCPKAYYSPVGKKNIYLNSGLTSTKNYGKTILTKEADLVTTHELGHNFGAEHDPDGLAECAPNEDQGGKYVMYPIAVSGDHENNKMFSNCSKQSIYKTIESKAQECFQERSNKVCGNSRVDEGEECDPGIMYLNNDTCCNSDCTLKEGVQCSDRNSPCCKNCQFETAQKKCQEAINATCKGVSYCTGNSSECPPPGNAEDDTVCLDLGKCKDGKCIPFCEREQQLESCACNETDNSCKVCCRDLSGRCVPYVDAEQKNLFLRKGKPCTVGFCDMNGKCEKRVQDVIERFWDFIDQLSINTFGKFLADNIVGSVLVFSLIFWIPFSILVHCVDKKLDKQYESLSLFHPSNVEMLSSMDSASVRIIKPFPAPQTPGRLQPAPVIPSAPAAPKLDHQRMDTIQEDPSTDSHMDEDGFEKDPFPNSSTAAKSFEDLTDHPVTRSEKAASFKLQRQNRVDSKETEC
Sequence of AChE (O42275 24-633): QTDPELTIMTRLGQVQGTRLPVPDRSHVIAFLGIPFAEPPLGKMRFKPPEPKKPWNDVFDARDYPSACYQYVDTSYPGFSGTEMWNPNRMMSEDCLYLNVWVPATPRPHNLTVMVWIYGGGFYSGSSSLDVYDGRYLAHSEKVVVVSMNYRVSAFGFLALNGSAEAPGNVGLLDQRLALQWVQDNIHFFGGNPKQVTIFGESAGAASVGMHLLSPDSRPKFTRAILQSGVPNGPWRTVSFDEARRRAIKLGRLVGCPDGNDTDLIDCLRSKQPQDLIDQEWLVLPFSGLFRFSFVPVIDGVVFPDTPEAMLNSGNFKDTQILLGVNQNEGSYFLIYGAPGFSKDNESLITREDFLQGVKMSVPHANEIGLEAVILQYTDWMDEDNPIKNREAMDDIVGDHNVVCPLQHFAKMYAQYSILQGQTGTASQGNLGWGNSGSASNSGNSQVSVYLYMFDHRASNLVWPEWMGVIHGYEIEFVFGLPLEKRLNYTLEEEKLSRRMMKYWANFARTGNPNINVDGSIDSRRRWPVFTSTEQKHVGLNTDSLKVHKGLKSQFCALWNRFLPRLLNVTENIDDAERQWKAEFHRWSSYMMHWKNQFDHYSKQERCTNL
Sequence of glycation of insulin (P01308 25-54 limits assumed): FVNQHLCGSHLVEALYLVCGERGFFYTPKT
Sequence of glycation of BSA (Bovine Serum Albumin) (P02769 25-607): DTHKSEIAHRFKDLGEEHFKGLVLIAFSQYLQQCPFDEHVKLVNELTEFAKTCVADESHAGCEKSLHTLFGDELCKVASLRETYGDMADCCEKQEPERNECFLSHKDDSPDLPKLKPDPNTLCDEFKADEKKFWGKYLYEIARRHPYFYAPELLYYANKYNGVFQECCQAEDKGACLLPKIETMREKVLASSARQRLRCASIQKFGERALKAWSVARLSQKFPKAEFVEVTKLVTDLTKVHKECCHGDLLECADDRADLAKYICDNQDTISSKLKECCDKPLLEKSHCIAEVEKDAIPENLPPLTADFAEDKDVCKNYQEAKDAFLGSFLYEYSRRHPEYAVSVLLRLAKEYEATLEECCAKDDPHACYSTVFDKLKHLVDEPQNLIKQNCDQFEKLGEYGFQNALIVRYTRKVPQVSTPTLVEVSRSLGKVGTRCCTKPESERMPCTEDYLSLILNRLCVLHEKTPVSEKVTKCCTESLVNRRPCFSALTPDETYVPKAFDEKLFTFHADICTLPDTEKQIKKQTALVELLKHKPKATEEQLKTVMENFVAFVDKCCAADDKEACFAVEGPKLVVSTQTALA
Sequence of Bovine trypsin (P00760 24-246): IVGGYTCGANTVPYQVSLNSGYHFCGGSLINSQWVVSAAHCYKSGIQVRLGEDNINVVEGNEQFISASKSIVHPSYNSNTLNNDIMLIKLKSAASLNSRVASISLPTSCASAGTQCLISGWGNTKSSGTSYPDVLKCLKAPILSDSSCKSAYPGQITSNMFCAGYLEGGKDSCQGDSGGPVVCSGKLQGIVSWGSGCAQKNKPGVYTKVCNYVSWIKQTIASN
Sequence of AChE activity in neuro2a cells (P21836 32-614): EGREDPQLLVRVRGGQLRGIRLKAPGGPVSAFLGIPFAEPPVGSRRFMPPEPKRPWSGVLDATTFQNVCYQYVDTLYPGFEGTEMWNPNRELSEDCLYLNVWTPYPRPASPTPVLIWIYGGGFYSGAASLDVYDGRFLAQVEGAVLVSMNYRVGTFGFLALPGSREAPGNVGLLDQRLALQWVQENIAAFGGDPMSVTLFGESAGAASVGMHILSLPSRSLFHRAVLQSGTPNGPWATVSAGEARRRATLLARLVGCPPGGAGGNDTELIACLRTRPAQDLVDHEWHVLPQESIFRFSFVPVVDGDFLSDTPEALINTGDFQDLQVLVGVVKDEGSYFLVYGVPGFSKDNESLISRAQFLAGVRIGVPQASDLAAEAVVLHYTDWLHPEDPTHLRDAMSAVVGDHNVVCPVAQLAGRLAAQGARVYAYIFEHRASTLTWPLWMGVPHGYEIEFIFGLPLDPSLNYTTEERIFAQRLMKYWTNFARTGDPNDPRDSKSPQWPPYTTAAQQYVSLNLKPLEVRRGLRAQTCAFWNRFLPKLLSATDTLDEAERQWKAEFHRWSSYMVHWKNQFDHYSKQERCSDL

For `CN(C)CCC=C1c2ccccc2CCc2ccccc21` [amitriptyline], at AChE, inhibition was half-maximal at 600 µM (IC50).

Consider `CNCCC=C1c2ccccc2CCc2ccccc21` [nortriptyline], for which half-maximal inhibition against AChE (IC50) required 135 µM.

For `CNCCCC1c2ccccc2C=Cc2ccccc21` [protriptyline], on Aβ13–22 [1], the “height of Aβ13–22 aggregates (AFM)” value is roughly 100 nm. At ADAM17, the inhibition at 100 µM is roughly 3% and the inhibition at 500 µM is roughly 25%. Besides, on Aβ13–22 [2], the “light scattering of Aβ aggregates” value is “reduced the light scattering in a concentration dependent manner”. For the same compound, the “glycation associated fluorescence of Aβ” value on glycation of Aβ13–22 is listed as “reduced by protriptyline in a concentration dependent manner”. In addition, the “glycation of BSA” value in assay [3] is “inhibited glycation”. Also, the glycation of insulin result at glycation of insulin is “inhibited glycation of insulin”. In addition, at Aβ13–22 [4], the IC50 was less than 150 µM, the “Thioflavin T fluorescence of Aβ13–22” value is listed as “Concentration dependent decrease in Thioflavin T fluorescence” and the “lag time of nucleation phase of Aβ13–22 aggregation (ThT fluorescence)” value is roughly 50 h. Besides, the “AChE activity in neuro2a cells” value in assay [5] is “concentration dependent decrease in AChE activity”. Further, at Bovine trypsin, the “inhibition of trypsin activity” value was “not able to inhibit trypsin activity”. In addition, at BACE-1, the Ki stood at 5 µM. At BACE-1 (IC50 for BACE1, summary statement), the IC50 was less than 150 µM. Besides, the IC50 against BACE-1 (IC50 for BACE-1, 2 h at 37°C) was roughly 25 µM. Further, on BACE-1 (Lineweaver-Burk plot, 15 µM protriptyline), the “type of BACE-1 inhibition” value is “competitive inhibition”.

(Values after paper PMC4139341 (PLoS ONE, 2014).)
